These results are taken from patent US20100167311A1, “Oxidoreductases and Processes Utilising Such Enzymes” (priority 2006, published 2010).

Data set [1] has as its target T1, type-1 site of NiR M150G (Alcaligenes faecalis, UniProt P38501, M186G).
T1 construct: His tag (C, cleaved yes); made in house
As to the kind of experiment: biochemical. The format is binding, A. faecalis S-6. The text has this:
Spectroscopy and assays—The spectrophotometer was a Perkin Elmer Instruments Lambda 800.

The target in the next data set is T2, NiR M150G (Alcaligenes faecalis, UniProt P38501, M186G).
T2 construct: His tag (C, cleaved yes); made in house
T2 sequence (P38501 other isoform, or with tags, fused parts or gaps M186G): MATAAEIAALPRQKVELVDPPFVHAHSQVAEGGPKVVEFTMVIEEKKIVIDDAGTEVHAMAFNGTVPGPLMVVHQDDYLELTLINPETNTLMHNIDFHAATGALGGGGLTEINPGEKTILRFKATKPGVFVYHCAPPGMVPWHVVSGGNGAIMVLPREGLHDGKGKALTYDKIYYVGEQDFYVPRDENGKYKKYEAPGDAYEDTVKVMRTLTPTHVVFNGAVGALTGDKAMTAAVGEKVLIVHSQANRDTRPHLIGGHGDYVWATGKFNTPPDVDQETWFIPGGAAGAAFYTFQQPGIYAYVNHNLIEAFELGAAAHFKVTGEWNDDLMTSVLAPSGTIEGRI
As to the kind of experiment: Activity assay monitoring oxidation of pseudoazurin, NiR M150G with external ligands. The data set is classed as biochemical, A. faecalis S-6. The following applies: for effect of external ligand on catalytic activity of NiR M150G: in words; for kcat^sat of NiR M150G saturated with external ligand: pseudoazurin 275-325 μM, nitrite 5 mM, 50 mM Mops pH 7.0. On the procedure:
(§1) Activity assays were carried out by monitoring the oxidation of pseudoazurin as described (3). The concentrations of the electron donor pseudoazurin (275-325 μM) and the electron acceptor nitrite (5 mM) were saturating. The concentration of NiR was typically 1 nM. The buffer for activity assays was always 50 mM Mops pH 7.0. Whenever using volatile compounds, the cuvette was sealed with a PTFE stopper. All reported activities were calculated from initial rates. Apparent dissociation constants (KD^app) were obtained from a least-squares fit of activity (v) versus ligand concentration to v=v^NoLigand+Δv×[L]/(KD^app+[L]). The meaning of KD^app will be explained in the Discussion section.

In data set [2] the target is T1, type-1 site of NiR M150G. The format is binding, A. faecalis S-6. The following applies: versus NHE, NiR M150G with external ligand bound, interpreted as upper limit.
Experimental: Potentiometric titrations—Potentiometric titrations were carried out as described by Dutton (47) in a cuvette held at 298 K in 100 mM potassium phosphate pH 7.0. The NiR concentration was typically 40 mM. Diaminodurol (2,3,5,6-tetramethyl-1,4-phenylenediamine) was used as a redox mediator at 100-200 μM. Potassium ferricyanide and sodium dithionite were used to change the potential of the solution. Visible absorption and the potential of the solution were monitored until both were stable. Spectra were recorded in the range of 510-800 nm since diaminodurol gives negligible absorbance in this region.
The recorded spectra were integrated using a routine written in Igor Pro (WaveMetrics Inc.). For base line correction this routine approximated the scattering contributions (due to aggregated protein) either by a linear approximation or by a method described elsewhere (48). […] The integrated absorbance versus potential was fitted to the Nernst equation with the number of electrons held at one. […]
in which EM^NL is the reduction potential without ligand, [L] denotes the free ligand concentration, KD^ox and KD^red are the ligand dissociation constants from the oxidized and reduced type-1 site respectively, R is the gas constant, F is the Faraday constant and T is the absolute temperature. […] The midpoint potential of the type-1 site with the external ligand bound (EM^L) was calculated from equation 2. […]
The target in another data set is T3, wt NiR (Alcaligenes faecalis, UniProt P38501).
T3 construct: His tag (C, cleaved yes); made in house
The data set is described as follows: Activity assay monitoring oxidation of pseudoazurin, wt NiR with external ligands. The format is biochemical, A. faecalis S-6. Conditions: for effect of external ligand on catalytic activity of wt NiR: in words. The protocol: as §1

Data set [3] deals with T4, pseudoazurin (UniProt P04377).
T4 sequence: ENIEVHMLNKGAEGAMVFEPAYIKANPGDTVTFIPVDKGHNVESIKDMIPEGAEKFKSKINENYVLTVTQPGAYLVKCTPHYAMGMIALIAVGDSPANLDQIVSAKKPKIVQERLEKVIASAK

For data set [4] the following is noted: in words; cited from earlier work.
The target in the next data set is T5, pseudoazurin, P04377.
T5 chain: T4 sequence

For data set [5], the system named is pseudoazurin. The data set is described as follows: Catalytic activity of NiR variants with the physiological electron donor pseudoazurin and nitrite. The data set is classed as biochemical, A. faecalis S-6. The following applies: no external ligand; pseudoazurin 275-325 μM, nitrite 5 mM, 50 mM Mops pH 7.0. The protocol: as §1

T1 sequence (P38501 other isoform, or with tags, fused parts or gaps M186G): as the sequence (P38501 other isoform, or with tags, fused parts or gaps M186G) above

The Kd is the free concentration of one partner at which half of the binding sites on the other are occupied at equilibrium, for simple one-to-one binding. The low end stands for tighter binding, the high end for weaker binding. `Cc1cscn1` [4-methylthiazole] came in with a Kd on type-1 site of NiR M150G [1] of 22 ± 3 mM.

As to `CC(N)=O` [acetamide], at NiR M150G, the “effect of external ligand on catalytic activity of NiR M150G” value (shortened to “effect of external ligand … of NiR M150G”) is listed as “restored the activity up to the level of wt NiR” and the “kcat^sat of NiR M150G saturated with external ligand” value (“kcat^sat of NiR M150G saturated” below) turned out to be 374 ± 28 s⁻¹. Further, binding on type-1 site of NiR M150G [1] was put at a Kd of 71 ± 3 mM. The “fitted reduction potential with ligand bound (EM^L)” value at type-1 site of NiR M150G [2] was under 225 mV.

As for `CC#N` [acetonitrile], the “kcat^sat of NiR M150G saturated” value on NiR M150G is >390^A s^−1. For the same molecule, on wt NiR (wt NiR), the “increase of catalytic activity” value is on record as 50%. This molecule yielded a Kd on type-1 site of NiR M150G [1] of 71.5 ± 7.3 mM.

As for `CSC` [dimethylsulfide], on NiR M150G, the dissociation constant (Kd) was 34 ± 7 mM, the “effect of external ligand … of NiR M150G” value is “restored the activity up to the level of wt NiR” and the “kcat^sat of NiR M150G saturated” value came out at 373 ± 22 s⁻¹. Further, the equilibrium dissociation constant (Kd) on type-1 site of NiR M150G [1] was determined as 21 ± 4 mM.

`CCSC` [ethylmethylsulfide]: on NiR M150G, the Kd was over 73 mM, the “effect of external ligand … of NiR M150G” value was “activity doubled” and the “kcat^sat of NiR M150G saturated” value is over 292 s⁻¹. The “effect of external ligand on catalytic activity of wt NiR” value (“effect of external ligand … of wt NiR” for short) on wt NiR was “constant activity”. Further, at type-1 site of NiR M150G [1], the Kd came out at 14 ± 6 mM.

As to `NC=O` [formamide], on NiR M150G, the “effect of external ligand … of NiR M150G” value is “activity doubled” and the “kcat^sat of NiR M150G saturated” value was over 255 s⁻¹. Also, the “effect of external ligand … of wt NiR” value on wt NiR was “constant activity”.

As to `c1c[nH]cn1` [imidazole], at NiR M150G, the “effect of external ligand … of NiR M150G” value is given as “decreased in activity”. The “effect of external ligand … of wt NiR” value at wt NiR was “decreased in activity”. In addition, the affinity at type-1 site of NiR M150G [1], expressed as Kd, was 52 ± 3 mM. Moreover, on type-1 site of NiR M150G [1] (NiR M150G with imidazole 260 mM, 25° C.), the “rate of slow spectral change (absorption at 430 nm versus time, single exponential)” value came out at 0.823 ± 0.003 h⁻¹.

For the molecule `c1ccncc1` [pyridine], the “fitted reduction potential with ligand bound (EM^L)” value at type-1 site of NiR M150G [2] was under 245 mV.

For the molecule “nitrite reductase M150G from Alcaligenes faecalis S-6”, in the data set with pseudoazurin [3], the kcat^sat (oxidation of pseudoazurin, no external ligand) came out at 133 s⁻¹; the kcat^sat (oxidation of pseudoazurin, saturated with acetamide) is 374 s⁻¹; the kcat^sat (oxidation of pseudoazurin, saturated with dimethylsulfide) is 373 s⁻¹; the “kcat^sat (oxidation of pseudoazurin, with acetonitrile)” value is >390^A. Further, in the data set with pseudoazurin [3], the kcat^sat (oxidation of pseudoazurin, with ethylmethylsulfide) is over 292 s⁻¹ and the kcat^sat (oxidation of pseudoazurin, with formamide) was over 255 s⁻¹.

On to “nitrite reductase M150H from Alcaligenes faecalis S-6”, for which the kcat^sat (oxidation of pseudoazurin, no external ligand) with pseudoazurin [3] came to 0.099 s⁻¹.

For “nitrite reductase M150T from Alcaligenes faecalis S-6”, in the data set with pseudoazurin [3], the kcat^sat (oxidation of pseudoazurin, no external ligand) was 126 s⁻¹.

B1: Achromobacter cycloclastes NiR M150Q: literature Met150Gln mutant of Achromobacter cycloclastes nitrite reductase (protein, UniProt P25006 39-378, looked up, variant M150Q)
Copper-containing nitrite …: AAGAAPVDISTLPRVKVDLVKPPFVHAHDQVAKTGPRVVEFTMTIEEKKLVIDREGTEIHAMTFNGSVPGPLMVVHENDYVELRLINPDTNTLLHNIDFHAATGALGGGALTQVNPGEETTLRFKATKPGVFVYHCAPEGMVPWHVTSGQNGAIMVLPRDGLKDEKGQPLTYDKIYYVGEQDFYVPKDEAGNYKKYETPGEAYEDAVKAMRTLTPTHIVFNGAVGALTGDHALTAAVGERVLVVHSQANRDTRPHLIGGHGDYVWATGKFRNPPDLDQETWLIPGGTAGAAFYTFRQPGVYAYVNHNLIEAFELGAAGHFKVTGEWNDDLMTSVVKPASM
Turning to B1, the “electron transfer rate (literature)” value in data set [4] was “decreased below the detection limit”.

B2: wild-type Cu-containing nitrite reductase from Alcaligenes faecalis S-6 (protein)
chain: QGAVRKATAAEIAALPRQKVELVDPPFVHAHSQVAEGGPKVVEFTMVIEEKKIVIDDAGTEVHAMAFNGTVPGPLMVVHQDDYLELTLINPETNTLMHNIDFHAATGALGGGGLTEINPGEKTILRFKATKPGVFVYHCAPPGMVPWHVVSGMNGAIMVLPREGLHDGKGKALTYDKIYYVGEQDFYVPRDENGKYKKYEAPGDAYEDTVKVMRTLTPTHVVFNGAVGALTGDKAMTAAVGEKVLIVHSQANRDTRPHLIGGHGDYVWATGKFNTPPDVDQETWFIPGGAAGAAFYTFQQPGIYAYVNHNLIEAFELGAAAHFKVTGEWNDDLMTSVLAPSGT
Consider B2, for which the kcat^sat (oxidation of pseudoazurin, no external ligand) with pseudoazurin, P04377 worked out at 416 s⁻¹. The “kcat^sat” value in the data set on pseudoazurin [5] came to 416 ± 10 s⁻¹.
